Measurements: PMC4706877, “Antibacterial and Cytotoxic Activity of Compounds Isolated from Flourensia oolepis” (Evidence-based Complementary and Alternative Medicine : eCAM, 2015)
pIC50: −log10 of the molar value. Converted amounts (≈) assume the structure as drawn.

Key:
[1] = system: CCRF-CEM cells; assay: Cell cycle distribution by flow cytometry (PI); assay type: cell-based, human; conditions: 2 × IC50, 72 h
Experimental: (§1) Control cells were devoid of 1 and negative controls contained 1% ethanol. After treatment, cells were harvested and washed twice with ice cold PBS. Then, cells were fixed with 70% cold ethanol and kept at 4°C for 24 h. Before analysis, the cells were washed twice with PBS and stained with a solution containing propidium iodide (PI, 50 μg/mL, Sigma-Aldrich CO, USA) and RNase A (100 μg/mL, Sigma-Aldrich CO, USA) in PBS (pH 7.4) for 30 min in the dark. DNA content was evaluated by flow cytometry. The relative distribution of at least 20,000 cells was analyzed using FlowJo software version 7.6.2 (Tree Star, Inc. OR, USA).

[2] = system: normal hepatocytes; design: method as in PMID 15223357; conditions: trypan blue exclusion method; cited from earlier work
[3] = system: peripheral blood mononuclear cells (PBMC); assay: MTT cell proliferation assay; assay type: cell-based; conditions: Homo sapiens
Source text: (§2) CCRF-CEM acute lymphoblastic leukemia (ALL) and K562 chronic myeloid leukemia (CML) cells and their MDR P-glycoprotein overexpressing variants, CEM/ADR5000 and Lucena 1, respectively, were a generous gift from Dr. T. Efferth (Institute of Pharmacy and Biochemistry, Johannes Gutenberg University, Mainz, Germany) and Dr. V. Rumjanek (Instituto de Bioquímica Médica Leopoldo de Meis, Universidade Federal do Rio de Janeiro, Rio de Janeiro, Brazil), respectively. The HEK293T non-tumor derived cell line and human isolated mononuclear cells (PBMC) were also tested. […]
(§3) To investigate the cytotoxic potential of the isolated compounds, the MTT colorimetric assay was performed. […] The compounds were evaluated at a final maximum concentration of 100 μM. […] Absorbance was measured with an iMark micro-plate reader (Bio-Rad, USA) at 595 nm. […] The percentage of cytotoxic activity of the assayed compounds was determined by the following formula: cytotoxicity (%) = [1 − (optical density of treated cells − optical density DMSO)/(optical density of ethanol control cells − optical density DMSO)] × 100.

[4] = system: K562 cells; assay: Apoptosis by Annexin V/PI double staining; assay type: cell-based, human; conditions: 2 × IC50, 72 h
Experimental: (§4) After incubation, cells were harvested, washed, and suspended in cold PBS. The proportion of cells undergoing apoptosis was examined by double staining using allophycocyanin (APC) conjugated Annexin-V (BD Pharmingen, USA) and propidium iodide (Sigma-Aldrich CO, USA). Over the following hour, the fluorescence of ten thousand cells, including that of control groups, was assayed and populations were analyzed with FlowJo software version 7.6.2 (Tree Star, Inc., OR, USA). Percentages of Annexin-V positive cells (PI− or PI+) indicate early or late apoptosis, respectively.

[5] = system: CCRF-CEM cells; assay: Apoptosis by Annexin V/PI double staining; assay type: cell-based, human; conditions: 2 × IC50, 72 h
Experimental: as §4

[6] = system: sensitive and resistant leukemic cells; assay: MTT assay, summary over leukemic cell lines; assay type: cell-based; conditions: Homo sapiens, read-out: IC50 values, range
Source text: as §2, §3

[7] = system: K562 cells; assay: Cell cycle distribution by flow cytometry (PI); assay type: cell-based, human; conditions: 2 × IC50, 72 h
Experimental: as §1, with “Control cells were devoid of 1 and negative controls contained 1% ethanol.” left out

[8] = system: HEK293T non-tumor derived cell line; assay: MTT cell proliferation assay; assay type: cell-based; conditions: Homo sapiens, HEK-293T
Source text: as §2, §3

[9] = system: K562 cells; assay: Viable cell count by trypan blue dye exclusion; assay type: cell-based, human
Experimental: (§5) To confirm the effect of compound 1 on the proliferation of CCRF-CEM and K562, cell suspensions (5 × 10^4 cells/well) were treated in culture medium with different concentrations of 1 (final volume of 200 μL) and incubated in triplicate for 24, 48, and 72 h. Two independent experiments were performed. The number of viable cells at the different time points was counted by the trypan blue dye exclusion method using a hemocytometer (Neubaur, USA).

[10] = system: CCRF-CEM cells; assay: Viable cell count by trypan blue dye exclusion; assay type: cell-based, human
Experimental: as §5

In the case of `O=C(/C=C/c1ccccc1)c1ccc(O)cc1O` [Compound 1, 2′,4′-dihydroxychalcone], the “hypodiploid sub-G1 population” value ([1]; ethanol control 1%) is given as 10%, the “cells in the G2/M phase” value ([1]; ethanol control 7%) is given as 34% and the IC50 [2] is given as 34 mg/L (≈ 142 µM). For the same compound, the pIC50 [3] was 4.08, the “early and late apoptotic cells” value [4] was 68.7% and the “early and late apoptotic cells” value [5] was 26.7%. The pIC50 [6] was 4.52 to 5.18, the “cells in the G2/M phase” value [7] was 19% and the “hypodiploid sub-G1 population” value ([7]; ethanol control 1%) was 25%. For the same compound, the pIC50 [8] was 4.17, the “time at which a significant decrease (p < 0.05) in number of viable cells vs ethanol control was observed” value ([9]; 20.8 μM) was 48 h and the “time at which a significant decrease (p < 0.05) in number of viable cells vs ethanol control was observed” value ([9]; 41.6 μM) was 24 h. The “time at which a significant difference (p < 0.05) in number of viable cells vs ethanol control was observed” value ([10]; 2.6 μM) was 72 h and the “time at which a significant difference (p < 0.05) in number of viable cells vs ethanol control was observed” value ([10]; 5.2 μM) was 48 h.
